{
  "source": "patent US9475779B2",
  "about": "“Substituted bicyclic dihydropyrimidinones and their use as inhibitors of neutrophil elastase activity” (priority 2014, dated 2016)",
  "data": [
    {"target": "neutrophil elastase (Homo sapiens (Human), UniProt P08246)", "sequence (P08246 whole entry, looked up)": "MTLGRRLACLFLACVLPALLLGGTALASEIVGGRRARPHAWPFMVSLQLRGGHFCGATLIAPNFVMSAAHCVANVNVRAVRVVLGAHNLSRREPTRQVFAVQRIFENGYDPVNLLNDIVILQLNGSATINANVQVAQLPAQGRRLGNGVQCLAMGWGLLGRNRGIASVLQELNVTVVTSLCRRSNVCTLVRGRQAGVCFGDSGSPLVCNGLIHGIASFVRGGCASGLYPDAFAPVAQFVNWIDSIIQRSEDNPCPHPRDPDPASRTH", "assay": "biochemical", "assay_type": "biochemical", "details": "IC50", "units": {"IC50": "nM"}, "procedure": "Human Neutrophil Elastase Assay\nAll other materials were of the highest grade commercially available.\nThe following buffers were used: Compound buffer: 100 mM Tris, 500 mM NaCl, adjusted to pH 7.5; Assay buffer: 100 mM Tris, 500 mM NaCl, adjusted to pH 7.5, containing 0.01% BSA.\nAssay conditions: Test compounds were prediluted in DMSO and subsequently in compound buffer (5% DMSO final). […] After inactivation of the enzyme, fluorescence intensities were measured at 380 nm excitation and 460 nm emission wavelengths.\nEach plate contains wells with a high value control (DMSO+enzyme+substrate) and wells with a low value control (DMSO+inactivated enzyme+substrate). IC50 values were estimated using a sigmoidal concentration response curve with variable slope. Means of low values were taken as 0%, means of high values as 100%.", "values": [
      {"smiles": "CCNC(=O)N1C(=O)N(c2ccnc(C(F)(F)F)c2)C2=C(C(=O)CC2)C1c1ccc(C#N)cc1S(=O)(=O)CC", "note": "(racemic) [Example D.4.1, 4-(4-cyano-2-ethanesulfonyl-phenyl)-2,5-dioxo-1-(2-trifluoromethyl-pyridin-4-yl)-1,2,4,5,6,7-hexahydro-cyclopentapyrimidine-3-carboxylic acid ethylamide]", "IC50": "< 1"},
      {"smiles": "CN1C(=O)N(c2cccc(C(F)(F)F)c2)C2=C(C(=O)CC2)C1c1ccc(C#N)cc1CO", "note": "(single isomer, unassigned) [Example A.1B, 3-Hydroxymethyl-4-[3-methyl-2,5-dioxo-1-(3-trifluoromethyl-phenyl)-2,3,4,5,6,7-hexahydro-1H-cyclopentapyrimidin-4-yl]-benzonitrile]", "IC50": 2780},
      {"smiles": "CCS(=O)(=O)c1cc(C#N)ccc1C1C2=C(CCC2=O)N(c2ccnc(C(F)(F)F)c2)C(=O)N1C", "note": "(single isomer, unassigned) [Example D.3A, 3-Ethanesulfonyl-4-[3-methyl-2,5-dioxo-1-(2-trifluoromethyl-pyridin-4-yl)-2,3,4,5,6,7-hexahydro-1H-cyclopentapyrimidin-4-yl]-benzonitrile]", "IC50": 2810},
      {"smiles": "CCS(=O)(=O)c1cc(C#N)ccc1C1NC(=O)N(c2cccc(C(F)F)c2)C2=C1C(=O)CC2", "note": "(single isomer, unassigned) [Example D.5B, 4-[1-(3-Difluoromethyl-phenyl)-2,5-dioxo-2,3,4,5,6,7-hexahydro-1H-cyclopentapyrimidin-4-yl]-3-ethanesulfonyl-benzonitrile]", "IC50": 892}
    ]},
    {"target": "neutrophil elastase (Homo sapiens (Human), UniProt P08246)", "assay": "biochemical", "assay_type": "biochemical", "details": "IC50, Neutrophil Elastase assay, substrate MeOSuc-Ala-Ala-Pro-Val-AMC", "units": {"IC50": "nM"}, "values": [
      {"smiles": "CN1C(=O)N(c2cccc(C(F)(F)F)c2)C2=C(C(=O)CC2)C1c1ccc(C#N)cc1S(=O)(=O)CCO", "note": "(single isomer, unassigned) [Example B.1.2A]", "IC50": 224}
    ]},
    {"target": "neutrophil elastase (Homo sapiens (Human), UniProt P08246)", "assay": "biochemical", "assay_type": "biochemical", "details": "Neutrophil Elastase assay, substrate MeOSuc-Ala-Ala-Pro-Val-AMC; read-out: IC50", "units": {"IC50": "nM"}, "values": [
      {"smiles": "CCNC(=O)N1C(=O)N(c2ccnc(C(F)(F)F)c2)C2=C(C(=O)CC2)C1c1ccc(C#N)cc1S(C)(=O)=O", "note": "(single isomer, unassigned) [D.4.10]", "IC50": "< 1"},
      {"smiles": "CN1C(=O)N(c2cccc(C(F)(F)F)c2)C2=C(C(=O)CC2)C1c1ccc(C#N)cc1[S+](C)[O-]", "note": "(single isomer, unassigned) [Example C.1A, 3-Methanesulfinyl-4-[3-methyl-2,5-dioxo-1-(3-trifluoromethyl-phenyl)-2,3,4,5,6,7-hexahydro-1H-cyclopentapyrimidin-4-yl]-benzonitrile]", "IC50": 1820},
      {"smiles": "CN1C(=O)N(c2cccc(C(F)(F)F)c2)C2=C(C(=O)CC2)C1c1ccc(C#N)cc1[S+](C)[O-]", "note": "(single isomer, unassigned) [Example C.2B, 3-Methanesulfinyl-4-[3-methyl-2,5-dioxo-1-(3-trifluoromethyl-phenyl)-2,3,4,5,6,7-hexahydro-1H-cyclopentapyrimidin-4-yl]-benzonitrile]", "IC50": 13},
      {"smiles": "CCNC(=O)N1C(=O)N(c2ccnc(C(F)(F)F)c2)C2=C(C(=O)CC2)C1c1ccc(C#N)cc1S(=O)(=O)CC", "note": "(single isomer, unassigned) [Example D.4.1B, 4-(4-cyano-2-ethanesulfonyl-phenyl)-2,5-dioxo-1-(2-trifluoromethyl-pyridin-4-yl)-1,2,4,5,6,7-hexahydro-cyclopentapyrimidine-3-carboxylic acid ethylamide]", "IC50": 338},
      {"smiles": "COCCS(=O)(=O)c1cc(C#N)ccc1C1NC(=O)N(c2cccc(C(F)(F)F)c2)C2=C1C(=O)CC2", "note": "(stereo not shown) [B.1.1]", "IC50": 5.7},
      {"smiles": "COCCS(=O)(=O)c1cc(C#N)ccc1C1C2=C(CCC2=O)N(c2cccc(C(F)(F)F)c2)C(=O)N1C", "note": "(stereo not shown) [B.1.4]", "IC50": "< 1"},
      {"smiles": "CS(=O)(=O)c1cc(C#N)ccc1C1NC(=O)N(c2cncc(C(F)(F)F)c2)C2=C1C(=O)CC2", "note": "(stereo not shown) [D.2.1]", "IC50": 60},
      {"smiles": "CS(=O)(=O)c1cc(C#N)ccc1C1NC(=O)N(c2cc(C(F)(F)F)ccn2)C2=C1C(=O)CC2", "note": "(stereo not shown) [D.2.2]", "IC50": 65},
      {"smiles": "CS(=O)(=O)c1cc(C#N)ccc1C1NC(=O)N(c2cncc(Br)c2)C2=C1C(=O)CC2", "note": "(stereo not shown) [D.2.3]", "IC50": 101},
      {"smiles": "CS(=O)(=O)c1cc(C#N)ccc1C1NC(=O)N(c2cncc(Cl)c2)C2=C1C(=O)CC2", "note": "(stereo not shown) [D.2.4]", "IC50": 103},
      {"smiles": "CN1C(=O)N(c2cncc(C(F)(F)F)c2)C2=C(C(=O)CC2)C1c1ccc(C#N)cc1S(C)(=O)=O", "note": "(stereo not shown) [D.3.1]", "IC50": 8.8},
      {"smiles": "CN1C(=O)N(c2cncc(Br)c2)C2=C(C(=O)CC2)C1c1ccc(C#N)cc1S(C)(=O)=O", "note": "(stereo not shown) [D.3.3]", "IC50": 13},
      {"smiles": "CN1C(=O)N(c2cncc(Cl)c2)C2=C(C(=O)CC2)C1c1ccc(C#N)cc1S(C)(=O)=O", "note": "(stereo not shown) [D.3.4]", "IC50": 8.1},
      {"smiles": "CNC(=O)N1C(=O)N(c2cncc(C(F)(F)F)c2)C2=C(C(=O)CC2)C1c1ccc(C#N)cc1S(C)(=O)=O", "note": "(stereo not shown) [D.4.2]", "IC50": "< 1"},
      {"smiles": "CCNC(=O)N1C(=O)N(c2cncc(C(F)(F)F)c2)C2=C(C(=O)CC2)C1c1ccc(C#N)cc1S(C)(=O)=O", "note": "(stereo not shown) [D.4.3]", "IC50": "< 1"},
      {"smiles": "CNC(=O)N1C(=O)N(c2cncc(Br)c2)C2=C(C(=O)CC2)C1c1ccc(C#N)cc1S(C)(=O)=O", "note": "(stereo not shown) [D.4.6]", "IC50": 1.2},
      {"smiles": "CCNC(=O)N1C(=O)N(c2cncc(Br)c2)C2=C(C(=O)CC2)C1c1ccc(C#N)cc1S(C)(=O)=O", "note": "(stereo not shown) [D.4.7]", "IC50": "< 1"},
      {"smiles": "CCNC(=O)N1C(=O)N(c2cncc(Cl)c2)C2=C(C(=O)CC2)C1c1ccc(C#N)cc1S(C)(=O)=O", "note": "(stereo not shown) [D.4.9]", "IC50": "< 1"},
      {"smiles": "N#Cc1ccc(C2NC(=O)N(c3cccc(C(F)(F)F)c3)C3=C2C(=O)CC3)c(S(=O)(=O)CCCO)c1", "note": "(stereo not shown) [Example B.1, 4-[2,5-Dioxo-1-(3-trifluoromethyl-phenyl)-2,3,4,5,6,7-hexahydro-1H-cyclopentapyrimidin-4-yl]-3-(3-hydroxy-propane-1-sulfonyl)-benzonitrile]", "IC50": 2.1},
      {"smiles": "CCNC(=O)N1C(=O)N(c2cccc(C(F)(F)F)c2)C2=C(C(=O)CC2)C1c1ccc(C#N)cc1[S+](C)[O-]", "note": "(stereo not shown) [Example C.3, 4-(4-Cyano-2-methanesulfinyl-phenyl)-2,5-dioxo-1-(3-trifluoromethyl-phenyl)-1,2,4,5,6,7-hexahydro-cyclopentapyrimidine-3-carboxylic acid ethylamide]", "IC50": "< 1"},
      {"smiles": "CCS(=O)(=O)c1cc(C#N)ccc1C1NC(=O)N(c2ccnc(C(F)(F)F)c2)C2=C1C(=O)CC2", "note": "(stereo not shown) [Example D.2, 4-[2,5-Dioxo-1-(2-trifluoromethyl-pyridin-4-yl)-2,3,4,5,6,7-hexahydro-1H-cyclopentapyrimidin-4-yl]-3-ethanesulfonyl-benzonitrile]", "IC50": 24},
      {"smiles": "CCS(=O)(=O)c1cc(C#N)ccc1C1C2=C(CCC2=O)N(c2ccnc(C(F)(F)F)c2)C(=O)N1C(=O)NC", "note": "(stereo not shown) [Example D.4, 4-(4-Cyano-2-ethanesulfonyl-phenyl)-2,5-dioxo-1-(2-trifluoromethyl-pyridin-4-yl)-1,2,4,5,6,7-hexahydro-cyclopentapyrimidine-3-carboxylic acid methylamide]", "IC50": "< 1"}
    ]},
    {"target": "neutrophil elastase (Homo sapiens (Human), UniProt P08246)", "assay": "biochemical", "assay_type": "biochemical", "details": "read-out: IC50", "units": {"IC50": "nM"}, "values": [
      {"smiles": "CCS(=O)(=O)c1cc(C#N)ccc1C1C2=C(CCC2=O)N(c2ccnc(C(F)(F)F)c2)C(=O)N1C", "note": "(racemic) [Example D.3, 3-Ethanesulfonyl-4-[3-methyl-2,5-dioxo-1-(2-trifluoromethyl-pyridin-4-yl)-2,3,4,5,6,7-hexahydro-1H-cyclopentapyrimidin-4-yl]-benzonitrile]", "IC50": 4},
      {"smiles": "CCS(=O)(=O)c1cc(C#N)ccc1C1NC(=O)N(c2cccc(C(F)F)c2)C2=C1C(=O)CC2", "note": "(racemic) [Example D.5, 4-[1-(3-Difluoromethyl-phenyl)-2,5-dioxo-2,3,4,5,6,7-hexahydro-1H-cyclopentapyrimidin-4-yl]-3-ethanesulfonyl-benzonitrile]", "IC50": 5.5},
      {"smiles": "CC[S+]([O-])c1cc(C#N)ccc1C1NC(=O)N(c2cccc(C(F)(F)F)c2)C2=C1C(=O)CC2", "note": "(single isomer, unassigned) [Example C.4.1, 4-[2,5-Dioxo-1-(3-trifluoromethyl-phenyl)-2,3,4,5,6,7-hexahydro-1H-cyclopentapyrimidin-4-yl]-3-ethanesulfinyl-benzonitrile]", "IC50": 5.2},
      {"smiles": "CC[S+]([O-])c1cc(C#N)ccc1C1NC(=O)N(c2cccc(C(F)(F)F)c2)C2=C1C(=O)CC2", "note": "(single isomer, unassigned) [Example C.4.2, 4-[2,5-Dioxo-1-(3-trifluoromethyl-phenyl)-2,3,4,5,6,7-hexahydro-1H-cyclopentapyrimidin-4-yl]-3-ethanesulfinyl-benzonitrile]", "IC50": 8.9},
      {"smiles": "CC[S+]([O-])c1cc(C#N)ccc1C1C2=C(CCC2=O)N(c2cccc(C(F)(F)F)c2)C(=O)N1C(=O)NC", "note": "(single isomer, unassigned) [Example C.6.1, 4-(4-Cyano-2-ethanesulfinyl-phenyl)-2,5-dioxo-1-(3-trifluoromethyl-phenyl)-1,2,4,5,6,7-hexahydro-cyclopentapyrimidine-3-carboxylic acid methylamide]", "IC50": "< 1"},
      {"smiles": "CC[S+]([O-])c1cc(C#N)ccc1C1C2=C(CCC2=O)N(c2cccc(C(F)(F)F)c2)C(=O)N1C(=O)NC", "note": "(single isomer, unassigned) [Example C.6.2, 4-(4-Cyano-2-ethanesulfinyl-phenyl)-2,5-dioxo-1-(3-trifluoromethyl-phenyl)-1,2,4,5,6,7-hexahydro-cyclopentapyrimidine-3-carboxylic acid methylamide]", "IC50": "< 1"},
      {"smiles": "CN1C(=O)N(c2cc(C(F)(F)F)ccn2)C2=C(C(=O)CC2)C1c1ccc(C#N)cc1S(C)(=O)=O", "note": "(stereo not shown) [D.3.2]", "IC50": 9.5},
      {"smiles": "CNC(=O)N1C(=O)N(c2cncc(Cl)c2)C2=C(C(=O)CC2)C1c1ccc(C#N)cc1S(C)(=O)=O", "note": "(stereo not shown) [D.4.8]", "IC50": "< 1"},
      {"smiles": "CN1C(=O)N(c2cccc(C(F)(F)F)c2)C2=C(C(=O)CC2)C1c1ccc(C#N)cc1CO", "note": "(stereo not shown) [Example A.1, 3-Hydroxymethyl-4-[3-methyl-2,5-dioxo-1-(3-trifluoromethyl-phenyl)-2,3,4,5,6,7-hexahydro-1H-cyclopentapyrimidin-4-yl]-benzonitrile]", "IC50": 1.6},
      {"smiles": "CCS(=O)(=O)c1cc(C#N)ccc1C1C2=C(CCC2=O)N(c2cccc(C(F)F)c2)C(=O)N1C", "note": "(stereo not shown) [Example D.6, 4-[1-(3-Difluoromethyl-phenyl)-3-methyl-2,5-dioxo-2,3,4,5,6,7-hexahydro-1H-cyclopentapyrimidin-4-yl]-3-ethanesulfonyl-benzonitrile]", "IC50": "< 1"}
    ]}
  ]
}
